Test results taken from patent US12281121B2, “N-containing heteroaryl derivative and pharmaceutical composition comprising same as active ingredient for prevention or treatment of cancer” (VORONOI Inc., priority 2019, dated 2025).

Experiments:
RET (WT) = target: T1, RET (WT) (Homo sapiens, UniProt P07949); assay: RET enzyme inhibitory ability, ADP-Glo kinase assay; assay type: biochemical; conditions: ATP 10 μM, 25° C., 1 hour
T1 construct: human RET (658-end, SIGNALCHEM); purchased SIGNALCHEM
T1 sequence (P07949 658-1114 limits assumed): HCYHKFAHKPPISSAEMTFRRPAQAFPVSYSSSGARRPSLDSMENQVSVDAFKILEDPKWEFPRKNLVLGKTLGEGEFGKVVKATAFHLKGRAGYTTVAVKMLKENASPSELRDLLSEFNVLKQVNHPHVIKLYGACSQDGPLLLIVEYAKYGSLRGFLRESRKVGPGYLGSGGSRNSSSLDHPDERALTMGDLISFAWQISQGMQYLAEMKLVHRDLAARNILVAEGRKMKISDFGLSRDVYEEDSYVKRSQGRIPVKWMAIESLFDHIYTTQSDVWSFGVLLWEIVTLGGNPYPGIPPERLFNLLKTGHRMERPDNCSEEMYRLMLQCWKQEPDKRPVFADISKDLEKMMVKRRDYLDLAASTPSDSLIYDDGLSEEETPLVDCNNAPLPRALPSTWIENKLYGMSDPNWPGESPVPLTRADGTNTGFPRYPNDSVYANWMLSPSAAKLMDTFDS
Experimental: The Example compound was reacted with a purified human RET (658-end, SIGNALCHEM) enzyme to evaluate the enzyme inhibitory ability by the following method. As a reaction buffer, a composition of 40 mM Tris-HCl pH 7.4, 20 mM MgCl2, 0.5 mg/mL BSA, and 50 μM DTT was used, and all experimental materials were reacted on the reaction buffer. After the human RET (658-end, 0.8 ng) enzyme was reacted with purified ATP (10 μM) and a specific substrate solution at 25° C. for 1 hour during the experiment, the enzyme activity was confirmed using in vitro ADP-Glo™ kinase assay (Promega). Luminescence was measured by reacting the enzyme activity reaction solution, the ADP-Glo reaction solution, and the enzyme activity detection solution at a ratio of 2:2:1. The degree of inhibition of enzyme activity according to the treatment concentration of each compound was calculated based on the […] of the enzyme activity of a solvent control group in which a compound was not treated, and in this case, the concentration of each compound which suppresses the […] enzyme activity by 50% was determined as an IC50 (nM) value. The IC50 (nM) of each compound was determined by 3 datasets and obtained using Prism (version 7.01, GraphPad) software.
In the enzyme assay column, RET (WT) is a non-mutated form, RET (V804M) is a mutated form in which the V amino acid at position 804 of the RET is substituted with M, and CCDC6-RET is a form in which the RET (WT) gene and CCDC6 gene are fused.

Ba/F3 (naive) cells = assay: Cell proliferation inhibition, CellTiter-Glo; assay type: cell-based; conditions: Mus musculus, BaF3; Ba/F3 not transduced, 72 hours
Experimental: (§1) Among lung cancer cell lines, which express RET fusion genes, LC-2/ad cells were cultured after adding 10% FBS (HyClone) to RPMI:F12 (1:1) (Invitrogen), and F-12 (Invitrogen) supplemented with 10% FBS was used for TT cells. RPMI-1640 supplemented with 10% FBS and 5 ng/ml IL-3 (R&D Systems) was used for Ba/F3 cells. Transduced Ba/F3 cells were cultured by adding 1 ug/ml puromycin (Invitrogen) to the same medium. 24 hours before cells were treated with the compound, 3000 to 5000 cells were aliquoted into each well of a white clear bottom 96 well plate (Corning). The compound was diluted in DMSO (3-fold dilution, a total of 12 concentrations) and the compound was injected by 0.5 μl such that the final concentration was 0.3 nM to 50 μM. For the measurement of living cells, 72 hours after the compound treatment, the cells were stored at room temperature for 10 minutes using a CellTiter-Glo luminescent cell-viability agent (Promega), and then the luminescence intensity was measured using a reader (SynergyNeo, Biotek). Each experiment was repeated in triplicate. The result value was calculated by the cell growth ratio (%) compared to the control. A graph was drawn using the GraphPad Prism version 5.0 program, and a GI50 (nM) value was calculated.
(§2) In the cell assay column, LC-2/ad (with CCDC6-RET gene) is a lung cancer cell line, a TT cell line ([…]) is a thyroid cancer cell line, Ba/F3 CCDC6-RET (WT), Ba/F3 KIF5B-RET (WT), and Ba/F3 KIF5B-RET (V804M) are cells in which disease-related traits (CCDC6-RET, KIF5B-RET, and KIF5B-RET (V804M)) are introduced into Ba/F3 cells, and Ba/F3 (naive) is a cell which is not transduced.

[1] = tested on: Ba/F3 CCDC6-RET (WT) cells; assay: Cell proliferation inhibition, CellTiter-Glo; assay type: cell-based; conditions: BaF3/CCDC6-RET, 72 hours
Experimental: as §1, §2

[2] = tested on: Ba/F3 KIF5B-RET (V804M) cells; assay: Cell proliferation inhibition, CellTiter-Glo; assay type: cell-based; conditions: Mus musculus, BaF3, 72 hours
Experimental: as §1, §2

[3] = tested on: Ba/F3 KIF5B-RET (WT) cells; assay: Cell proliferation inhibition, CellTiter-Glo; assay type: cell-based; conditions: Mus musculus, BaF3, 72 hours
Experimental: as §1, §2

Structure (SMILES) | IC50 (RET (WT)) [nM] | GI50 (Ba/F3 (naive) cells) [nM] | GI50 [1] [nM] | GI50 [2] [nM] | GI50 [3] [nM]
COc1cnc(CN2C3CC2CN(c2ccc(-c4nc(Nc5cc(C)[nH]n5)c5ccccc5n4)cn2)C3)cn1 [Example 17, 2-(6-(6-((5-methoxypyrazin-2-yl)methyl)-3,6-diazabicyclo [3.1.1]heptan-3-yl)pyridin-3-yl)-N-(5-methyl-1H-pyrazol-3-yl)quinazolin-4-amine] | 11 | 867 | 46 | 7 | 10
Cc1cc(Nc2nc(-c3ccc(N4CC5CC(C4)N5Cc4ccc5ncccc5c4)nc3)nc3ccccc23)n[nH]1 [Example 18, N-(5-methyl-1H-pyrazol-3-yl)-2-(6-(6-(quinolin-6-ylmethyl)-3,6-diazabicyclo [3.1.1]heptan-3-yl)pyridin-3-yl)quinazolin-4-amine] | 34 | 4600 | 67 | 25 | 28
Cc1csc(CN2C3CC2CN(c2ccc(-c4nc(Nc5cc(C)[nH]n5)c5ccccc5n4)cn2)C3)n1 [Example 19, N-(5-methyl-1H-pyrazol-3-yl)-2-(6-(6-((4-methylthiazol-2-yl)methyl)-3,6-diazabicyclo [3.1.1]heptan-3-yl)pyridin-3-yl)quinazolin-4-amine] | 40 | 1230 | 120 | 28 | 29
Cc1cc(Nc2nc(-c3ccc(N4CC5CC(C4)N5Cc4ccc(N(C)C)nc4)nc3)nc3ccccc23)n[nH]1 [Example 20, 2-(6-(6-((6-(di-methylamino)py-ridin-3-yl)meth-yl)-3,6-diazabicyclo [3.1.1]heptan-3-yl)pyridin-3-yl)-N-(5-methyl-1H-pyrazol-3-yl)quinazolin-4-amine] | 14 | 2780 | 44 | 6 | 11
Cc1cc(Nc2nc(-c3ccc(N4CC5CC(C4)N5Cc4ccc(F)cc4)nc3)nc3ccccc23)n[nH]1 [Example 22, 2-(6-(6-(4-fluorobenzyl)-3,6-diazabicyclo [3.1.1]heptan-3-yl)pyridin-3-yl)-N-(5-methyl-1H-pyrazol-3-yl)quinazolin-4-amine] | 20 | 1220 | 55 | 6 | 20
Cc1cc(Nc2nc(-c3ccc(N4CC5CC(C4)N5Cc4ccc(F)nc4)nc3)nc3ccccc23)n[nH]1 [Example 23, 2-(6-(6-((6-fluoropyridin-3-yl)methyl)-3,6-diazabicyclo [3.1.1]heptan-3-yl)pyridin-3-yl)-N-(5-methyl-1H-pyrazol-3-yl)quinazolin-4-amine] | 15 | 1300 | 57 | 19 | 14
CCOc1ccc(CN2C3CC2CN(c2ccc(-c4nc(Nc5cc(C)[nH]n5)c5ccccc5n4)cn2)C3)cn1 [Example 24, 2-(6-(6-((6-ethoxypyridin-3-yl)methyl)-3,6-diazabicyclo [3.1.1]heptan-3-yl)pyridin-3-yl)-N-(5-methyl-1H-pyrazol-3-yl)quinazolin-4-amine] | 14 | 4320 | 53 | 10 | 12
Cc1ncc(CN2C3CC2CN(c2ccc(-c4nc(Nc5cc(C)[nH]n5)c5ccccc5n4)cn2)C3)cn1 [Example 25, N-(5-methyl-1H-pyrazol-3-yl)-2-(6-(6-((2-methylpyrimidin-5-yl)methyl)-3,6-diazabicyclo [3.1.1]heptan-3-yl)pyridin-3-yl)quinazolin-4-amine] | 7 | 1650 | 50 | 21 | 14
Cc1cnc(CN2C3CC2CN(c2ccc(-c4nc(Nc5cc(C)[nH]n5)c5ccccc5n4)cn2)C3)cn1 [Example 26, N-(5-methyl-1H-pyrazol-3-yl)-2-(6-(6-((5-methylpyrazin-2-yl)methyl)-3,6-diazabicyclo [3.1.1]heptan-3-yl)pyridin-3-yl)quinazolin-4-amine] | 7 | 973 | 37 | 10 | 10
COc1ccc(CN2CCN(c3ccc(-c4nc(Nc5cc(C)[nH]n5)c5ccccc5n4)cn3)CC2(C)C)cn1 [Example 29, 2-(6-(4-((6-meth-oxypyridin-3-yl)methyl)-3,3-dimethyl-piperazin-1-yl)pyridin-3-yl)-N-(5-methyl-1H-pyrazol-3-yl)quinazolin-4-amine] | 123 | 6320 | 454 | 89 | 164
COc1ccc(CN2CCCN(c3ccc(-c4nc(Nc5cc(C)[nH]n5)c5ccccc5n4)cn3)CC2)cn1 [Example 30, 2-(6-(4-((6-methoxypyridin-3-yl)methyl)-1,4-diazepan-1-yl)pyridin-3-yl)-N-(5-methyl-1H-pyrazol-3-yl)quinazolin-4-amine] | 34 | 1130 | 99 | 25 | 44
COc1ccc(CN2C[C@@H]3C[C@H]2CN3c2ccc(-c3nc(Nc4cc(C)[nH]n4)c4ccccc4n3)cn2)cn1 [Example 31, 2-(6-((1S,4S)-5-((6-methoxy-pyridin-3-yl)methyl)-2,5-diazabicyclo [2.2.1]heptan-2-yl)pyridin-3-yl)-N-(5-methyl-1H-pyrazol-3-yl)quinazolin-4-amine] | 25 | 1680 | 66 | 12 | 18
COc1ccc(CN2C[C@H]3C[C@@H]2CN3c2ccc(-c3nc(Nc4cc(C)[nH]n4)c4ccccc4n3)cn2)cn1 [Example 34, 2-(6-((1R,4R)-5-((6-methoxy-pyridin-3-yl)methyl)-2,5-diazabicyclo [2.2.1]heptan-2-yl)pyridin-3-yl)-N-(5-methyl-1H-pyrazol-3-yl)quinazolin-4-amine] | 16 | 2590 | 65 | 20 | 19
COc1ccc(CN2CCN(c3ccc(-c4nc(Nc5cc(C)[nH]n5)c5ccccc5n4)cn3)C[C@H]2C)cn1 [Example 36, (R)-2-(6-(4-((6-methoxypyridin-3-yl)methyl)-3-methylpiperazin-1-yl)pyridin-3-yl)-N-(5-methyl-1H-pyrazol-3-yl)quinazolin-4-amine] | 59 | 4800 | 259 | 32 | 63
COc1ccc(CN2CCN(c3ccc(-c4nc(Nc5cc(C)[nH]n5)c5ccccc5n4)cn3)CC23CC3)cn1 [Example 37, 2-(6-(4-((6-methoxypyridin-3-yl)methyl)-4,7-diazaspiro[2.5]oc-tan-7-yl)pyridin-3-yl)-N-(5-meth-yl-1H-pyrazol-3-yl)quinazolin-4-amine] | 219 | 4650 | 305 | 50 | 107
